Data on three compounds can be found in patent US20220177471A1, “N-1 BRANCHED ALKYL SUBSTITUTED IMIDAZO[4,5-C]QUINOLINE COMPOUNDS, COMPOSITIONS, AND METHODS” (3M INNOVATIVE PROPERTIES COMPANY, priority 2019, published 2022).

This experiment relates to Human peripheral blood mononuclear cells (PBMC). The experiment in a line: Cytokine induction in human cells (PBMC), cytokines by ELISA / multiplex bead assay. It counts as cell-based. The conditions noted are these: for minimal effective concentration: human PBMC, 21-24 hours, lowest concentration giving cytokine level at least 2x negative control. Here is the method:
Whole blood was obtained from healthy human donors and collected by venipuncture into vacutainer tubes or syringes containing EDTA. Human peripheral blood mononuclear cells (PBMC) were purified from the whole blood by density gradient centrifugation. Histopaque 1077 (15 mL, Sigma, St. Louis, Mo.) was transferred to 6×50 mL sterile polypropylene conical tubes. The Histopaque was overlayed with 15-25 mL of blood diluted 1:2 in Hank's Balanced Salts Solution (HBSS) (Gibco, Life Technologies, Grand Island, N.Y.). The tubes were then centrifuged at 1370 revolutions per minute (rpm) for 30 minutes at 20° C., with no brake (400×g, GH 3.8 A Rotor).
The interface (buffy coat) containing the PBMC was collected and placed in a new sterile 50 mL conical polypropylene centrifuge tube. The PBMC were mixed with an equal volume of HBSS (about 20 mL from the interface and about 20 mL of HBSS), and then centrifuged at 1090 rpm, 10 minutes, 20° C., with brake (270×g, GH 3.8 A Rotor). After completing centrifugation, the cells were resuspended in 2-3 mL ACK Red blood cell lysis buffer (ammonium chloride potassium solution, Gibco, Life Technologies) and incubated for 2-5 minutes at 20° C. Next, HBSS (40 mL) was added to the cells, and the sample was centrifuged at 270×g for 10 minutes at 20° C. The supernatant was decanted, and the cell pellet was resuspended in 5 mL AIM V Medium (Gibco, Life Technologies). Cell aggregates and debris were removed by filtering the cell solution through a BD Falcon 70 micron nylon cell strainer (BD Biosciences, San Jose, Calif.).
The number of viable cells was determined by counting with a Miltenyi FACS instrument (Miltenyi Biotec Inc., San Diego, Calif.) or by using a hemacytometer. For determining cell viability with a hemacytometer, the cells were diluted 1/10 in 0.4% trypan blue and HBSS (specifically, 50 microliter of trypan blue+40 microliter of HBSS+10 microliter of cell solution were added to a microfuge tube and mixed). Ten microliters of the diluted cells were then applied to the hemacytometer, and the number of viable PBMC were determined by microscopy.
The PBMC sample was then resuspended in 96-well plates at a concentration of 8×10^5 cells/well in 0.1 mL of AIM-V medium. Each compound was solubilized in dimethyl sulfoxide (DMSO) to create a 3 mM stock solution. The stock solution was then further diluted with AIM-V medium to prepare the serial dilutions. The diluted compound (100 microliters) was then transferred to the PBMCs to produce testing sets with final compound concentrations of either 30, 10, 3.3, 1.1, 0.37, 0.12, 0.04, 0.01 micromolar (testing set A); 100, 30, 10, 3.3, 1.1, 0.37, 0.12, 0.04, 0.01, 0.005 micromolar (testing set B); 100, 33.3, 11.1, 3.7, 1.2, 0.41 micromolar (testing set C); or 100, 50, 30, 10, 3.3, 1.1, 0.37, 0.12, 0.04 micromolar (testing set D). The plates also had both positive and negative controls. The negative control wells contained only AIM-V medium with no example compound. The positive control wells contained a control set of imiquimod serially diluted to concentrations of either 30, 10, 3.3, 1.1, 0.37, 0.12, 0.04, 0.01 micromolar (control set A); 100, 30, 10, 3.3, 1.1, 0.37, 0.12, 0.04, 0.01, 0.005 micromolar (control set B); 100, 33.3, 11.1, 3.7, 1.2, 0.41 micromolar (control set C); or 100, 50, 30, 10, 3.3, 1.1, 0.37, 0.12, 0.04 micromolar (control set D). The concentrations used in the control set were selected to match the concentrations used in the testing set. The plates were then cultured at 37° C./5% CO2 for 21-24 hours. Cell-free supernatants were harvested by centrifuging the 96-well plates at 2100 rpm, 23° C. for 10 minutes. Approximately 160 microliters of the supernatant was then stored in a NUNC 96-well plate, covered with the compression cap and stored at −80° C. until the cytokine analysis was done.
IFN-alpha cytokine levels (picograms/mL) were measured by ELISA (human IFN-alpha, pan specific, Mabtech, Cincinnati, Ohio). […]
On the technique in general: ELISA stands for enzyme-linked immunosorbent assay.

Where [1] appears, read: ELISA, read-out: MEC to Induce Cytokine: IFN-alpha.
Where [2] appears, read: multiplex bead assay, read-out: MEC to Induce Cytokine: IFN-gamma.
[3] abbreviates: multiplex bead assay, read-out: MEC to Induce Cytokine: TNF-alpha.

Like-named read-outs stand apart in the source and are kept apart here. Bounds are passed on as bounds.

Turning to `CC(C)Cn1cnc2c(N)nc3ccccc3c21` [Comparative Example 1, 1-isobutylimidazo[4,5-c]quinolin-4-amine, reference compound], the minimal effective concentration is, setting by setting: under setting [1], 11.1 µM; under setting [2], 11.1 µM; under setting [3], 11.1 µM.
For `CC(C)C[C@@H](n1cnc2c(N)nc3ccccc3c21)C(C)(C)O` [Example 17, (3R)-3-(4-aminoimidazo[4,5-c]quinolin-1-yl)-2,5-dimethyl-hexan-2-ol], the minimal effective concentration was determined as 10 µM under setting [1], 10 µM under setting [2] and 10 µM under setting [3].
For the compound `C[C@H](n1cnc2c(N)nc3ccccc3c21)C(C)(C)C` [Example 4, 1-[(1S)-1,2,2-trimethylpropyl]imidazo[4,5-c]quinolin-4-amine], the “cytokine production (statement in words)” value (IFN-alpha, IFN-gamma, TNF-alpha) was “inactive toward cytokine production”. For the same compound, the minimal effective concentration reads like this: under setting [1], greater than 100 µM; under setting [2], greater than 100 µM; under setting [3], greater than 100 µM.
